Data taken from patent US10357576B2, “18F-labelled folate/antifolate analogues” (MERCK & CIE, priority 2012, dated 2019).

Biological target: T1, Folate receptor (Homo sapiens, UniProt P15328)
T1 construct: host or cells: KB cells (human cervical carcinoma cell line, HeLa subclone)
Assay: Folate receptor binding affinity (displacement of ^3H-folic acid on KB tumor cells)
Details: ^3H-folic acid 0.84 nM, 4° C., 30 min, read-out: FR-binding affinity IC50
Procedure: Cell Culture: KB cells (human cervical carcinoma cell line, HeLa subclone; ACC-136) were purchased from the German Collection of Microorganisms and Cell Cultures (DSMZ, Braunschweig, Germany). The cells were cultured as monolayers at 37° C. in a humidified atmosphere containing 5% CO2. […] FFRPMI medium was supplemented with 10% heat-inactivated fetal calf serum (FCS, as the only source of folate), L-glutamine and antibiotics (penicillin/streptomycin/fungizone). Routine culture treatment was performed twice a week with EDTA (2.5 mmol/l) in PBS.
After incubation, Eppendorf tubes containing the cell suspensions were centrifuged at 4° C. for 5 min and the supernatant was removed. By addition of 0.5 ml of NaOH 1 M the cell pellets were lysed and transferred into scintillation tubes containing 5 ml of scintillation cocktail (Ultima Gold; Perkin Elmer). Radioactivity was measured using a liquid scintillation analyzer (Tri-Carb 1900 TR, Packard) and an inhibitory concentration of 50% was determined from displacement curves using GraphPad Prism (version 5.01) software.

T1 sequence (P15328 25-234): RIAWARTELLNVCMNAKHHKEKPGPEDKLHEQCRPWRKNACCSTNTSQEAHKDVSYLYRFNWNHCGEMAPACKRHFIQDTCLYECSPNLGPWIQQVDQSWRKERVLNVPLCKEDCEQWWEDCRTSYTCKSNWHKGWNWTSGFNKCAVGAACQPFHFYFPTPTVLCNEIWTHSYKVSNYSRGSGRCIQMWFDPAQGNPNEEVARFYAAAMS

IC50: 0.81 ± 0.18 nM
SMILES: Nc1nc2ncc(CNc3ccc(C(=O)N[C@@H](CCC(=O)O)C(=O)O)c(F)n3)nc2c(=O)[nH]1 [3′-aza-2′-fluorofolic acid]
